Patent US20070208087A1, “Compounds, compositions and methods for the treatment of inflammatory diseases” (priority 2001, published 2007)
Several values for one entry are separate records, joined by “and”; a condition that tells them apart may be missing. Equal entries are not always repeated. Where two headings read alike, the source gives them in different places.

What was measured:
Format in all cases: cell-based
microglia = assay: Ranking of NO release inhibition (Example 12); details: Microglia, ranking table
Text: The bis- and tris-dihydroxyaryl compounds were ranked in order of effectiveness for the inhibition of NO release as set out in Table 8.

[1] = tested on: EOC 13.31 microglia cells; assay: Inhibition of NO release from microglia following 24 hours pretreatment (Example 10); details: for inhibition at 50 µM: Microglia
Protocol: This experiment was designed to determine if pretreatment for 24 hours with bis- and tris-dihydroxyaryl compounds changes NO inhibition previously observed with concurrent exposure of bis- and tris-dihydroxyaryl compounds. […] This study seeks to determine if pretreatment with bis- and tris-dihydroxyaryl compounds increases NO release inhibition. EOC 13.31 microglia cells were plated at 1×10^6 cells/ml in 96 well plates. After 48 hours, confluent cells were exposed to 50 μM compound (stock 10 mM in DMSO) prepared in fresh cell culture media. After 24 hours, 10 μg/ml LPS and 10 ng/ml IFNγ was added to wells directly without a media change. Cells were incubated for a further 48 hours and nitric oxide release was measured using the Griess Reaction.

[2] = tested on: TNF-α release from microglia; assay: TNF-α release from LPS/IFNγ stimulated microglia, TNF-α ELISA (Example 11); details: 50 uM compound, TNF-α release, 10 ug LPS and 10 ng IFNγ, 24 hours; for % inhibition: individual replicates, 50 µM; for inhibition at 50 µM: Microglia, 24 h, read-out: Avg % Inhibition
Protocol: Also, bis- and tris-dihydroxyaryl compound's ability to inhibit NO release strongly supports their interference with the inflammatory cascade and utlimately inhibition of inflammation. Microglia cells were plated at 1×10^5 cells/ml into 96 well plates. At day three, they were treated with 50 μM bis- and tris-dihydroxyaryl compound for 1 hour and then exposed to 10 μg/ml LPS+10 ng/ml IFNγ for 24 hours. 10 μl of media was removed and stored at −80° until TNF-α ELISA assays were performed. Samples were diluted 1:50 before running the TNF-α ELISA (kit commercially available from Sigma).

[3] = tested on: EOC 13.31 microglial cells; assay: NO release inhibition screen in LPS/IFNγ stimulated microglia, Griess reaction at 48 hours (Example 7); details: for μM NO release Avg / % inhibition / inhibition at 50 µM: 50 uM + 10 μg/ml LPS/10 ng/ml IFNγ, 48 hours; for % inhibition: 50 µM; for inhibition at 50 µM: Microglia, 48 h
Protocol: In this experiment, additional bis- and tris-dihydroxyaryl compounds were screened for their ability to inhibit nitric oxide release from microglial cells. Microglial cells stimulated with LPS/IFNγ release nitric oxide. […] This is a continuation of screening experiments. EOC 13.31 microglial cells were plated into 96 well plates. At 24 hours and at confluency, cells were treated with 10 μg/ml LPS/10 ng/ml IFNγ+50 uM bis- and tris-dihydroxyaryl compounds.

Microglial cells = assay: Dose response inhibition of NO release from microglia, 0.5-500 μM (Example 9); details: for μM NO release / μM NO release (No LPS average subtracted): 3 replicates
Protocol: This experiment was designed to determine the dose response inhibition of NO release from microglia by bis- and tris-dihydroxyaryl compounds when stimulated with LPS/IFNγ. Earlier experiments have demonostrated that some bis- and tris-dihydroxyaryl compounds are good inhibitors of NO release from microglia. This experiment is designed to determine a dose response for various effective bis- and tris-dihydroxyaryl compounds. Microglial cells were plated into 96 well plates at 1×10^5 cells/ml. At 48 hours, media was exchanged for media containing 10 ng/ml IFNγ and 10 μg/ml LPS and the following compounds 3, 4, 21, 26 and the positive control L-NAME. The doses tested were: 0.5 μM, 1.0 μM, 5.0 μM, 10 μM, 25 μM, 50 μM, 100 μM, 250 μM, and 500 μM. Nitric oxide release was measured after 48 hours using the Griess reaction.

[4] = 50 uM pretreatment 24 hours, then LPS/IFNγ 48 hours, single replicates
[5] = 50 uM pretreatment 24 hours, then LPS/IFNγ 48 hours, read-out: Avg % Inhibition
[6] = 50 uM pretreatment 24 hours, then LPS/IFNγ 48 hours, single replicates, read-out: % inhibition
[7] = 50 μM pretreatment, read-out: inhibition of NO release following pretreatment
[8] = dose 0.5 μM, LPS/IFNγ, 48 hours
[9] = dose 100 μM, LPS/IFNγ, 48 hours
[10] = dose 250 μM, LPS/IFNγ, 48 hours
[11] = dose 500 μM, LPS/IFNγ, 48 hours

## O=C(CCc1ccc(O)c(O)c1)Nc1ccc(O)c(O)c1 [Compound 57, 3-(3,4-dihydroxyphenyl)propionic acid 3,4-dihydroxyanilide]
microglia
  inhibition at 50 µM: 14%
[1]; [4]
  μM NO release: 0.000 µM
[1]; [5]
  inhibition at 50 µM: 100%
[1]; [6]
  inhibition at 50 µM: 100%
[1]; [7]
  inhibition at 50 µM: > 75%
[2]
  % inhibition: −6.36% and −3.40% and −1.92%
  inhibition at 50 µM: -3.89%
[3]
  μM NO release Avg: 23.756 µM
[3]; single replicates
  % inhibition: 16.40% and 20.74% and 5.97%
[3]; read-out: Avg. % Inhibition
  inhibition at 50 µM: 14.4%

## O=C(CCc1ccc(O)c(O)c1)NCc1ccc(O)c(O)c1 [Compound 58, 3-(3,4-dihydroxyphenyl)propionic acid 3,4-dihydroxybenzylamide]
microglia
  inhibition at 50 µM: 4%
[1]; [4]
  % inhibition: 77.86% and 69.95%
[1]; [5]
  inhibition at 50 µM: 72.5%
[1]; [6]
  inhibition at 50 µM: 69.6%
[2]
  % inhibition: −13.26% and −11.95%
  inhibition at 50 µM: -12.6%
[3]
  μM NO release Avg: 26.605 µM
[3]; single replicates
  % inhibition: 9.89% and 2.05% and 0.37%
[3]; read-out: Avg. % Inhibition
  inhibition at 50 µM: 4.1%

## O=C(Nc1ccc(O)c(O)c1)C(=O)Nc1ccc(O)c(O)c1 [Compound 63, oxalic acid bis(3,4-dihydroxyanilide)]
microglia
  inhibition at 50 µM: 14%
[1]; [4]
  % inhibition: 81.97%
[1]; [5]
  inhibition at 50 µM: 82.1%
[1]; [6]
  inhibition at 50 µM: 82.3%
[1]; [7]
  inhibition at 50 µM: > 75%
[2]
  % inhibition: −11.29% and −7.18% and −9.97%
  inhibition at 50 µM: -9.48%
[3]
  μM NO release Avg: 23.193 µM
[3]; single replicates
  % inhibition: 15.27%
[3]; read-out: Avg. % Inhibition
  inhibition at 50 µM: 14.2%
[3]; single replicates, read-out: % inhibition
  inhibition at 50 µM: 11.9%

## O=C(CCC(=O)NCc1ccc(O)c(O)c1)NCc1ccc(O)c(O)c1 [Compound 67, succinic acid bis(3,4-dihydroxybenzylamide)]
Microglial cells; Microglia, 48 h, dose 0.5 μM, NO release, LPS/IFNγ, 48 hours, read-out: Avg % Inhibition
  inhibition at 0.5 µM: -2.75%
Microglial cells; Microglia, 48 h, dose 1 μM, NO release, LPS/IFNγ, 48 hours, read-out: Avg % Inhibition
  inhibition at 1 µM: 1.5%
Microglial cells; Microglia, 48 h, dose 5 μM, NO release, LPS/IFNγ
  inhibition at 5 µM: -0.75%
Microglial cells; Microglia, 48 h, dose 10 μM, NO release, LPS/IFNγ
  inhibition at 10 µM: -12.7%
Microglial cells; Microglia, 48 h, dose 25 μM, NO release, LPS/IFNγ
  inhibition at 25 µM: -5.5%
Microglial cells; Microglia, 48 h, dose 50 μM, NO release, LPS/IFNγ
  inhibition at 50 µM: -9.24%
Microglial cells; Microglia, 48 h, dose 100 μM, NO release, LPS/IFNγ, 48 hours, read-out: Avg % Inhibition
  inhibition at 100 µM: 16%
Microglial cells; Microglia, 48 h, dose 250 μM, NO release, LPS/IFNγ, 48 hours, read-out: Avg % Inhibition
  inhibition at 250 µM: 44.4%
Microglial cells; Microglia, 48 h, dose 250 μM, individual replicates, NO release, LPS/IFNγ, 48 hours, read-out: % inhibition
  inhibition at 250 µM: 45.3%
Microglial cells; Microglia, 48 h, dose 500 μM, NO release, LPS/IFNγ, 48 hours, read-out: Avg % Inhibition
  inhibition at 500 µM: 76.9%
Microglial cells; Microglia, 48 h, dose 500 μM, individual replicates, NO release, LPS/IFNγ, 48 hours, read-out: % inhibition
  inhibition at 500 µM: 75.5%
Microglial cells; Microglia, 48 h, highest concentration tested (500 μM), 48 hours, read-out: inhibited NO release by
  inhibition at 500 µM: 76%
Microglial cells; [8]
  μM NO release: 21.528 µM and 20.278 µM and 20.417 µM
  μM NO release (No LPS average subtracted): 19.83 µM and 18.58 µM and 18.72 µM
Microglial cells; dose 0.5 μM, individual replicates, NO release, LPS/IFNγ, 48 hours
  % inhibition: −7.00% and −0.25% and −1.00%
Microglial cells; dose 1 μM, LPS/IFNγ, 48 hours
  μM NO release: 21.528 µM and 19.306 µM and 19.028 µM
  μM NO release (No LPS average subtracted): 19.83 µM and 17.61 µM and 17.33 µM
Microglial cells; dose 1 μM, individual replicates, NO release, LPS/IFNγ, 48 hours
  % inhibition: −7.00% and 5.00% and 6.50%
Microglial cells; dose 5 μM, LPS/IFNγ, 48 hours
  μM NO release: 21.389 µM and 19.583 µM and 20.139 µM
  μM NO release (No LPS average subtracted): 19.69 µM and 17.88 µM and 18.44 µM
Microglial cells; dose 5 μM, individual replicates, NO release, LPS/IFNγ, 48 hours
  % inhibition: −6.25% and 3.50% and 0.50%
Microglial cells; dose 10 μM, LPS/IFNγ, 48 hours
  μM NO release: 22.917 µM and 22.083 µM and 22.778 µM
  μM NO release (No LPS average subtracted): 21.22 µM and 20.38 µM and 21.08 µM
Microglial cells; dose 10 μM, individual replicates, NO release, LPS/IFNγ, 48 hours
  % inhibition: −14.49% and −9.99% and −13.74%
Microglial cells; dose 25 μM, LPS/IFNγ, 48 hours
  μM NO release: 21.944 µM and 20.556 µM and 21.250 µM
  μM NO release (No LPS average subtracted): 20.24 µM and 18.86 µM and 19.55 µM
Microglial cells; dose 25 μM, individual replicates, NO release, LPS/IFNγ, 48 hours
  % inhibition: −1.75%
Microglial cells; dose 50 μM, LPS/IFNγ, 48 hours
  μM NO release: 22.639 µM and 21.111 µM and 22.083 µM
  μM NO release (No LPS average subtracted): 20.94 µM and 19.41 µM and 20.38 µM
Microglial cells; dose 50 μM, individual replicates, NO release, LPS/IFNγ, 48 hours
  % inhibition: −12.99% and −4.75% and −9.99%
Microglial cells; [9]
  μM NO release: 17.917 µM and 14.583 µM and 19.306 µM
  μM NO release (No LPS average subtracted): 16.22 µM and 12.88 µM and 17.61 µM
Microglial cells; dose 100 μM, individual replicates, NO release, LPS/IFNγ, 48 hours
  % inhibition: 12.49% and 30.48% and 5.00%
Microglial cells; [10]
  μM NO release: 11.835 μM (2×) and 12.367 μM
  μM NO release (No LPS average subtracted): 10.14 μM (2×) and 10.67 μM
Microglial cells; dose 250 μM, individual replicates, NO release, LPS/IFNγ, 48 hours
  % inhibition: 42.44%
Microglial cells; [11]
  μM NO release: 6.250 µM and 5.707 µM and 5.978 µM
  μM NO release (No LPS average subtracted): 4.55 µM and 4.01 µM and 4.28 µM
Microglial cells; dose 500 μM, individual replicates, NO release, LPS/IFNγ, 48 hours
  % inhibition: 78.38%
microglia
  inhibition at 50 µM: 61%
[1]; [4]
  % inhibition: 58.88% and 67.74%
[1]; [5]
  inhibition at 50 µM: 65.6%
[1]; [6]
  inhibition at 50 µM: 70.3%
[2]
  % inhibition: −27.48% and −14.06% and −17.41%
  inhibition at 50 µM: -19.6%
[3]
  μM NO release Avg: 10.579 µM
[3]; single replicates
  % inhibition: 44.82% and 72.72% and 65.01%
[3]; 50 uM, LPS/IFNγ stimulated microglia
  inhibition of NO release, in words: effective inhibitors of NO release
[3]; read-out: Avg. % Inhibition
  inhibition at 50 µM: 60.9%

## Oc1ccc(CN(Cc2ccc(O)c(O)c2)Cc2ccc(O)c(O)c2)cc1O [Compound 75, tris(3,4-dihydroxybenzyl)amine]
microglia
  inhibition at 50 µM: 16%
[1]; [4]
  % inhibition: 60.46% and 56.98%
[1]; [5]
  inhibition at 50 µM: 59.6%
[1]; [6]
  inhibition at 50 µM: 61.4%
[2]
  % inhibition: 2.52% and −2.74% and 5.81%
  inhibition at 50 µM: 1.86%
[3]
  μM NO release Avg: 23.343 µM
[3]; single replicates
  % inhibition: 24.54% and 12.06% and 10.97%
[3]; read-out: Avg. % Inhibition
  inhibition at 50 µM: 15.9%

## Oc1cc2ncc3cnc4cc(O)c(O)cc4c3c2cc1O [Compound 85, dibenzo[c,f][2,7]napthyridine-2,3,10,11-tetraol]
microglia
  inhibition at 50 µM: 16%
[1]; [4]
  % inhibition: 97.27% and 94.23%
[1]; [5]
  inhibition at 50 µM: 94.9%
[1]; [6]
  inhibition at 50 µM: 93.3%
[1]; [7]
  inhibition at 50 µM: > 75%
[2]
  % inhibition: −14.41% and −19.01% and −16.88%
  inhibition at 50 µM: -16.8%
[3]
  μM NO release Avg: 23.445 µM
[3]; single replicates
  % inhibition: 24.54% and 12.660% and 9.33%
[3]; read-out: Avg. % Inhibition
  inhibition at 50 µM: 15.5%
